Results on four molecules are retold here after patent US20240300932A1, “N-PHENYLIMINE DERIVATIVE AND PREPARATION METHOD AND USE THEREOF” (Guizhou University, priority 2023, published 2024).

Common to all, as to assay: Post-emergence herbicidal activity test (stem and leaf spray, pot culture)
Common to all, as to format: in vivo
What all share (details): 3 weeks after spraying

For assay [1], the system named is Trifoliumre pensL. A digest of the protocol: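 Pot-grown weeds in loam (pH 7), greenhouse at 20–30 °C, sprayed once post-emergence at the 2–3-leaf stage. Compound in acetone with Tween 80 plus methyl oleate oil (1.5 L/ha), applied at 10, 5 and 2.5 g/mu by spray tower. Effect scored 3 weeks after spraying, averaged over three repeats.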
The test system of assay [2] is Abutilon theophrasti. A digest of the protocol: (§1)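 Graded 0–5 on fresh-weight growth control rate 3 weeks after a single spray-tower application at 10, 5 or 2.5 g/mu. Compounds in acetone with Tween 80 and methyl oleate synergist (1.5 liters/ha), applied to greenhouse weeds at 2- to 3-leaf stage.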
Assay [3] deals with Setaria viridis. A digest of the protocol:
as §1

Assay [4] has as its system Portulaca oleracea. A digest of the protocol:
as §1

In assay [5] the test system is Echinochloa crusgalli. A digest of the protocol:
as §1

The subject of assay [6] is Amaranthus retroflexus. A digest of the protocol:
as §1

Take `O=C1C2=C(CCCC2)C(=O)N1c1cc(OCc2nc(-c3ccc(Cl)nc3Cl)no2)c(Cl)cc1F` [Compound A16]: the “Post-emergence herbicidal activity, Trifoliumre pensL. (grade)” value in assay [1] (dosage 2.5 g/mu) is 4 (Grade 4: the growth control rate is greater than or equal to 60% and less than 85%); in assay [1] (dosage 5 g/mu) it was 5 (Grade 5: the growth control rate is greater than or equal to 85%); in assay [1] (dosage 10 g/mu), 5 (Grade 5: the growth control rate is greater than or equal to 85%). In addition, the “Post-emergence herbicidal activity, A. theophrasti (grade)” value in assay [2] (dosage 2.5 g/mu), in assay [2] (dosage 5 g/mu) and in assay [2] (dosage 10 g/mu) was 5 (Grade 5: the growth control rate is greater than or equal to 85%) throughout. The “Post-emergence herbicidal activity, S. viridis (grade)” value in assay [3] (dosage 2.5 g/mu) was 2 (Grade 2: the growth control rate is greater than or equal to 20% and less than 40%); in assay [3] (dosage 5 g/mu) it was 3 (Grade 3: the growth control rate is greater than or equal to 40% and less than 60%); in assay [3] (dosage 10 g/mu) it was 4 (Grade 4: the growth control rate is greater than or equal to 60% and less than 85%). The “Post-emergence herbicidal activity, P. oleracea (grade)” value in assay [4] (dosage 2.5 g/mu) is 4 (Grade 4: the growth control rate is greater than or equal to 60% and less than 85%); in assay [4] (dosage 5 g/mu), 5 (Grade 5: the growth control rate is greater than or equal to 85%); in assay [4] (dosage 10 g/mu), 5 (Grade 5: the growth control rate is greater than or equal to 85%). Also, the “Post-emergence herbicidal activity, E. crusgalli (grade)” value in assay [5] (dosage 2.5 g/mu) is 1 (Grade 1: the growth control rate is greater than or equal to 5% and less than 20%); in assay [5] (dosage 5 g/mu), 2 (Grade 2: the growth control rate is greater than or equal to 20% and less than 40%); in assay [5] (dosage 10 g/mu), 3 (Grade 3: the growth control rate is greater than or equal to 40% and less than 60%). The “Post-emergence herbicidal activity, A. retroflexus (grade)” value in assay [6] (dosage 2.5 g/mu), in assay [6] (dosage 5 g/mu) and in assay [6] (dosage 10 g/mu) was 5 (Grade 5: the growth control rate is greater than or equal to 85%) throughout.

For the molecule `O=C1C2=C(CCCC2)C(=O)N1c1cc(OCc2nc(-c3cccc(C(F)(F)F)c3)no2)c(Cl)cc1F` [Compound A17], the “Post-emergence herbicidal activity, Trifoliumre pensL. (grade)” value in assay [1] (dosage 2.5 g/mu) was 4 (Grade 4: the growth control rate is greater than or equal to 60% and less than 85%); in assay [1] (dosage 5 g/mu), 5 (Grade 5: the growth control rate is greater than or equal to 85%); in assay [1] (dosage 10 g/mu) it was 5 (Grade 5: the growth control rate is greater than or equal to 85%). For the same molecule, the “Post-emergence herbicidal activity, A. theophrasti (grade)” value in assay [2] (dosage 2.5 g/mu), in assay [2] (dosage 5 g/mu) and in assay [2] (dosage 10 g/mu) was 5 (Grade 5: the growth control rate is greater than or equal to 85%) in each case. Besides, the “Post-emergence herbicidal activity, S. viridis (grade)” value in assay [3] (dosage 2.5 g/mu) is 2 (Grade 2: the growth control rate is greater than or equal to 20% and less than 40%); in assay [3] (dosage 5 g/mu) it was 3 (Grade 3: the growth control rate is greater than or equal to 40% and less than 60%); in assay [3] (dosage 10 g/mu), 4 (Grade 4: the growth control rate is greater than or equal to 60% and less than 85%). Further, the “Post-emergence herbicidal activity, P. oleracea (grade)” value in assay [4] (dosage 2.5 g/mu) is 4 (Grade 4: the growth control rate is greater than or equal to 60% and less than 85%); in assay [4] (dosage 5 g/mu), 5 (Grade 5: the growth control rate is greater than or equal to 85%); in assay [4] (dosage 10 g/mu), 5 (Grade 5: the growth control rate is greater than or equal to 85%). Moreover, the “Post-emergence herbicidal activity, E. crusgalli (grade)” value in assay [5] (dosage 2.5 g/mu) was 1 (Grade 1: the growth control rate is greater than or equal to 5% and less than 20%); in assay [5] (dosage 5 g/mu), 2 (Grade 2: the growth control rate is greater than or equal to 20% and less than 40%); in assay [5] (dosage 10 g/mu), 3 (Grade 3: the growth control rate is greater than or equal to 40% and less than 60%). The “Post-emergence herbicidal activity, A. retroflexus (grade)” value in assay [6] (dosage 2.5 g/mu), in assay [6] (dosage 5 g/mu) and in assay [6] (dosage 10 g/mu) was 5 (Grade 5: the growth control rate is greater than or equal to 85%) each time.

For the molecule `O=C1C2=C(CCCC2)C(=O)N1c1cc(OCc2nc(-c3ccccc3C(F)(F)F)no2)c(Cl)cc1F` [Compound A18], the “Post-emergence herbicidal activity, Trifoliumre pensL. (grade)” value was 4 (Grade 4: the growth control rate is greater than or equal to 60% and less than 85%) in assay [1] (dosage 2.5 g/mu); 5 (Grade 5: the growth control rate is greater than or equal to 85%) in assay [1] (dosage 5 g/mu); 5 (Grade 5: the growth control rate is greater than or equal to 85%) in assay [1] (dosage 10 g/mu). The “Post-emergence herbicidal activity, A. theophrasti (grade)” value in assay [2] (dosage 2.5 g/mu), in assay [2] (dosage 5 g/mu) and in assay [2] (dosage 10 g/mu) was 5 (Grade 5: the growth control rate is greater than or equal to 85%) throughout. Moreover, the “Post-emergence herbicidal activity, S. viridis (grade)” value in assay [3] (dosage 2.5 g/mu) is 2 (Grade 2: the growth control rate is greater than or equal to 20% and less than 40%); in assay [3] (dosage 5 g/mu), 3 (Grade 3: the growth control rate is greater than or equal to 40% and less than 60%); in assay [3] (dosage 10 g/mu), 4 (Grade 4: the growth control rate is greater than or equal to 60% and less than 85%). Besides, the “Post-emergence herbicidal activity, P. oleracea (grade)” value in assay [4] (dosage 2.5 g/mu) was 4 (Grade 4: the growth control rate is greater than or equal to 60% and less than 85%); in assay [4] (dosage 5 g/mu) it was 5 (Grade 5: the growth control rate is greater than or equal to 85%); in assay [4] (dosage 10 g/mu), 5 (Grade 5: the growth control rate is greater than or equal to 85%). Besides, the “Post-emergence herbicidal activity, E. crusgalli (grade)” value in assay [5] (dosage 2.5 g/mu) was 1 (Grade 1: the growth control rate is greater than or equal to 5% and less than 20%); in assay [5] (dosage 5 g/mu) it was 2 (Grade 2: the growth control rate is greater than or equal to 20% and less than 40%); in assay [5] (dosage 10 g/mu), 3 (Grade 3: the growth control rate is greater than or equal to 40% and less than 60%). Moreover, the “Post-emergence herbicidal activity, A. retroflexus (grade)” value in assay [6] (dosage 2.5 g/mu), in assay [6] (dosage 5 g/mu) and in assay [6] (dosage 10 g/mu) was 5 (Grade 5: the growth control rate is greater than or equal to 85%) each time.

For `O=C1C2=C(CCCC2)C(=O)N1c1cc(OCc2nc(-c3cccs3)no2)c(Cl)cc1F` [Compound A19], the “Post-emergence herbicidal activity, Trifoliumre pensL. (grade)” value was 4 (Grade 4: the growth control rate is greater than or equal to 60% and less than 85%) in assay [1] (dosage 2.5 g/mu); 5 (Grade 5: the growth control rate is greater than or equal to 85%) in assay [1] (dosage 5 g/mu); 5 (Grade 5: the growth control rate is greater than or equal to 85%) in assay [1] (dosage 10 g/mu). Besides, the “Post-emergence herbicidal activity, A. theophrasti (grade)” value in assay [2] (dosage 2.5 g/mu), in assay [2] (dosage 5 g/mu) and in assay [2] (dosage 10 g/mu) was 5 (Grade 5: the growth control rate is greater than or equal to 85%) each time. For the same molecule, the “Post-emergence herbicidal activity, S. viridis (grade)” value was 2 (Grade 2: the growth control rate is greater than or equal to 20% and less than 40%) in assay [3] (dosage 2.5 g/mu); 3 (Grade 3: the growth control rate is greater than or equal to 40% and less than 60%) in assay [3] (dosage 5 g/mu); 4 (Grade 4: the growth control rate is greater than or equal to 60% and less than 85%) in assay [3] (dosage 10 g/mu). Also, the “Post-emergence herbicidal activity, P. oleracea (grade)” value in assay [4] (dosage 2.5 g/mu) is 4 (Grade 4: the growth control rate is greater than or equal to 60% and less than 85%); in assay [4] (dosage 5 g/mu), 5 (Grade 5: the growth control rate is greater than or equal to 85%); in assay [4] (dosage 10 g/mu) it was 5 (Grade 5: the growth control rate is greater than or equal to 85%). Further, the “Post-emergence herbicidal activity, E. crusgalli (grade)” value in assay [5] (dosage 2.5 g/mu) was 1 (Grade 1: the growth control rate is greater than or equal to 5% and less than 20%); in assay [5] (dosage 5 g/mu) it was 2 (Grade 2: the growth control rate is greater than or equal to 20% and less than 40%); in assay [5] (dosage 10 g/mu) it was 3 (Grade 3: the growth control rate is greater than or equal to 40% and less than 60%). Moreover, the “Post-emergence herbicidal activity, A. retroflexus (grade)” value in assay [6] (dosage 2.5 g/mu), in assay [6] (dosage 5 g/mu) and in assay [6] (dosage 10 g/mu) was 5 (Grade 5: the growth control rate is greater than or equal to 85%) in each case.
